In patent US9006450B2 (Boehringer Ingelheim International GmbH, priority 2010, dated 2015):

Each molecule was assayed against T1, human ACC2 (Homo sapiens, UniProt O00763) (assay: ACC2 assay, spectrophotometric 384 well assay (NADH-linked, coupled lactate dehydrogenase/pyruvate kinase)). Details: ACC2 assay, hACC2 construct lacking 128 N-terminal amino acids, 25° C., 340 nm; read-out: IC50.
T1 construct: made in house; host or cells: insect cells (baculoviral expression system)
T1 sequence (O00763 129-2458 limits assumed): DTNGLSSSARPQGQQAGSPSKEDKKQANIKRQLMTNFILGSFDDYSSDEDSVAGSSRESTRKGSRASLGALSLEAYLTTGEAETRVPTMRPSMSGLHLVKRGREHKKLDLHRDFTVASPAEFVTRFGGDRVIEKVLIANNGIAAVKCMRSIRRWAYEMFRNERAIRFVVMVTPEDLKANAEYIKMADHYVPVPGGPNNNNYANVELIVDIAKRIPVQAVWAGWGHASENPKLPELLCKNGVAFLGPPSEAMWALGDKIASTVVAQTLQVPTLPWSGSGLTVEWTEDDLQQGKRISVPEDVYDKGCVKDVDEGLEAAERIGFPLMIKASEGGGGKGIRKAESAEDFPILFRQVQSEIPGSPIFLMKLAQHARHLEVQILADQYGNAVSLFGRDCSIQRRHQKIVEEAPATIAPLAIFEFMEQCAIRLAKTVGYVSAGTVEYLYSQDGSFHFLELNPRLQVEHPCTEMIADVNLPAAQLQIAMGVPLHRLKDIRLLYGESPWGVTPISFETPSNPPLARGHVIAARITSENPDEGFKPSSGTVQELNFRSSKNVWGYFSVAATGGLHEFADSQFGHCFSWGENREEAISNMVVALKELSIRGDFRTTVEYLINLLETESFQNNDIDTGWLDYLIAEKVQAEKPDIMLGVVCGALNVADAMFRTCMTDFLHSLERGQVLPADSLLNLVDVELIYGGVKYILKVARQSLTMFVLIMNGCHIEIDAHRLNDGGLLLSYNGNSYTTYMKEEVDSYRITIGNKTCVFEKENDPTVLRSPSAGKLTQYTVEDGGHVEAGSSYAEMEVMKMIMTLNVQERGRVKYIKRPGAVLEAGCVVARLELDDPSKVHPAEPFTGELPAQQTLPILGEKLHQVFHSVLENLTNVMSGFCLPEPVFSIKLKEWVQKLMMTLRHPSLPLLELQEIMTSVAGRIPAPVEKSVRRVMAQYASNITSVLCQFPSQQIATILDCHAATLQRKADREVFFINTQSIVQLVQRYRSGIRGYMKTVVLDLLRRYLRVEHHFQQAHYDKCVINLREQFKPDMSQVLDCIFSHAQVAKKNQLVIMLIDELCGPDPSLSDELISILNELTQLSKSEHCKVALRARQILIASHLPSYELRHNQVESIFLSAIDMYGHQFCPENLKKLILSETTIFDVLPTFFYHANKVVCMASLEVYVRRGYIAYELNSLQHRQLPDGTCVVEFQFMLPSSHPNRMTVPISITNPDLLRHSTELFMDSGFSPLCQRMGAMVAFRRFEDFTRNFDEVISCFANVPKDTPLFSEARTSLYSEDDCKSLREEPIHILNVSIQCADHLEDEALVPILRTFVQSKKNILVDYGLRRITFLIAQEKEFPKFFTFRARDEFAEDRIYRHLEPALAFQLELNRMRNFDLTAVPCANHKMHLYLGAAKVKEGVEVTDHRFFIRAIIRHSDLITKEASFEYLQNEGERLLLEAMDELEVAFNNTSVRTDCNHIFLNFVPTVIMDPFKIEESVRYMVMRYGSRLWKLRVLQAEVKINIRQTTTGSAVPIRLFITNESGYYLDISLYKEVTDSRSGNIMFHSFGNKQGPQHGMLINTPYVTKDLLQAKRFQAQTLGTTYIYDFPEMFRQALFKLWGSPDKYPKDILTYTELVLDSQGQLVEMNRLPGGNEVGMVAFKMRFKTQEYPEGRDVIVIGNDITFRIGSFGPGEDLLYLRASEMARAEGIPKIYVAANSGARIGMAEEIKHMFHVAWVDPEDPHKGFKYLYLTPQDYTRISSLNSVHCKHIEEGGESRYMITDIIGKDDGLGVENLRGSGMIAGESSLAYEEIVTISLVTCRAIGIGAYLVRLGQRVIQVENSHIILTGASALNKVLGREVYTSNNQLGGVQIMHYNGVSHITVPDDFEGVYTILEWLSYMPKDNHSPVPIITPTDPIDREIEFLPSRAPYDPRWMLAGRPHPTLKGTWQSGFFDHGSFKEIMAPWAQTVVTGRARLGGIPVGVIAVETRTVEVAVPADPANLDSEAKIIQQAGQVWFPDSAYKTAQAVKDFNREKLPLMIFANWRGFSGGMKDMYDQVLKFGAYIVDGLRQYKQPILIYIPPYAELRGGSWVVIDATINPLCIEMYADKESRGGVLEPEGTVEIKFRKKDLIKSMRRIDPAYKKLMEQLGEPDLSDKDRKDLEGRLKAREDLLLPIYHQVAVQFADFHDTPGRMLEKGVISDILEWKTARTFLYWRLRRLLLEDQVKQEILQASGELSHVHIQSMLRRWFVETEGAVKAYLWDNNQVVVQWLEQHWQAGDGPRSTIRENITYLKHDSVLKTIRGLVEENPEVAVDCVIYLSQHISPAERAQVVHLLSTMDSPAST
Format: biochemical
Method: Spectrophotometric 384 Well Assay
Malonyl CoA formation by acetyl CoA carboxylases is stoichometrically linked to the consumption of ATP. ACC2 activity is measured in a NADH-linked kinetic method measuring ADP generated during the ACC reaction using a coupled lactate dehydrogenase/pyruvate kinase reaction.
For biological testing, a human ACC2 construct which lacks the 128 amino acids at the N-terminus for increased solubility (nt 385-6966 in Genbank entry AJ575592) is cloned. The protein is then expressed in insect cells using a baculoviral expression system. Protein purification is performed by anion exchange.
All compounds are dissolved in dimethyl sulfoxide (DMSO) to a concentration of 10 mM.
Assay reactions are then carried out in 384-well plates, with hACC2 in an appropriate dilution and at final assay concentrations (f.c.) of 100 mM Tris (pH 7.5), 10 mM trisodium citrate, 25 mM KHCO3, 10 mM MgCl2, 0.5 mg/mL BSA, 3.75 mM reduced L-glutathione, 15 U/mL lactate dehydrogenase, 0.5 mM phosphoenolpyruvate, 15 U/mL pyruvate kinase, compounds at different concentrations at final DMSO concentrations of 1%.
The enzymatic reaction is then started by addition of a mixture of NADH, acetyl Coenzyme A (both 200 μM f.c.) and ATP (500 uM f.c.). The decrease of the optical density (slope S) is then determined at 25° C. at a wavelength of 340 nm over 15 minutes in a spectrophotometric reader.
Each assay microtiter plate contains wells with vehicle instead of compound as controls for the non-inhibited enzyme (100% CTL; ‘HIGH’) and wells without acetyl-CoA as controls for non-specific NADH degradation (0% CTL; ‘LOW’).
The slope S is used for calculation of % CTL=(S(compound)−S('LOW'))/(S('HIGH')−S('LOW'))*100. Compounds will give values between 100% CTL (no inhibition) and 0% CTL (complete inhibition).
For IC50 value determination, the sample slope in the presence of the test compound after subtraction of the low controls (S(compound)−S('LOW')) are used.
An IC50 value is derived from the compound slopes at different dosages after subtraction of the low controls (S(compound)−S('LOW')) by non-linear regression curve fitting (equation y=(A+((B−A)/(1+((C/x)^D))))).
`COC(=O)N[C@@H](C)c1ccc(C2CCN(c3ccc(OC4CCCC4)cc3)CC2)cc1` [Example 1.133] was tested, and the IC50 was 130 nM.
`COC(=O)N[C@@H](C)c1ccc(C2CCN(c3ccc(OCC(C)C)cn3)CC2)cc1` [Example 1.134] showed an IC50 of 280 nM.
With `COC(=O)N[C@@H](C)c1ccc(C2CCN(c3ccc(OC(C)C)cc3)CC2)cc1` [Example 1.135] the IC50 was 340 nM.
Work on `COC(=O)N[C@@H](C)c1ccc(C2CCN(c3ccnc(OC(C)C)c3)CC2)cc1` [Example 1.136] yielded an IC50 of 500 nM.
Molecule `CCOc1ccc(N2CCC(c3ccc([C@H](C)NC(=O)OC)cc3)CC2)c(OCC)c1` [Example 1.137] has an IC50 of 16000 nM.
`C[C@H](NC(=O)N(C)C)c1ccc(C2CCN(c3ccnc(Oc4ccccc4)c3)CC2)cc1` [Example 1.138] was tested, and the IC50 was 160 nM.
In the case of `C[C@H](NC(=O)C1CC1)c1ccc(C2CCN(c3ccc(OCC4CC4(F)F)cc3)CC2)cc1` (stereo partly drawn) [Example 1.139], the IC50 is reported as 70 nM.
`C[C@H](NC(=O)N(C)C)c1ccc(C2CCN(c3ccc(OCC4CC4(F)F)cc3)CC2)cc1` (stereo partly drawn) [Example 1.140] gave an IC50 of 90 nM.
`C[C@H](NC(=O)C1CC1)c1ccc(C2CCN(c3ccc(OCC4CCC4)cc3)CC2)cc1` [Example 1.141] gave an IC50 of 320 nM.
`C[C@H](NC(=O)N(C)C)c1ccc(C2CCN(c3ccc(OCC4CCC4)cc3)CC2)cc1` [Example 1.142] showed an IC50 of 60 nM.
In the case of `C[C@H](NC(=O)C1CC1)c1ccc(C2CCN(c3ccc(OCCC4CC4)cc3)CC2)cc1` [Example 1.143], the IC50 is reported as 120 nM.
`C[C@H](NC(=O)N(C)C)c1ccc(C2CCN(c3ccc(OCCC4CC4)cc3)CC2)cc1` [Example 1.144] was tested, and the IC50 was 60 nM.
In the case of `CCCOc1ccc(N2CCC(c3ccc([C@H](C)NC(=O)CC)cc3)CC2)cc1` [Example 1.145], the IC50 is reported as 140 nM.
In the case of `CCC(=O)N[C@@H](C)c1ccc(C2CCN(c3ccc4c(c3)OCCO4)CC2)cc1` [Example 1.146], the IC50 is reported as 1100 nM.
With `CCCOc1ccc(N2CCC(c3ccc([C@H](C)NC(=O)CC)cc3)CC2)c(OC)c1` [Example 1.147] the IC50 was 490 nM.
`CCC(=O)N[C@@H](C)c1ccc(C2CCN(c3ccc(OCC4CC4)cc3F)CC2)cc1` [Example 1.148] was tested, and the IC50 was 700 nM.
In the case of `CCC(=O)N[C@@H](C)c1ccc(C2CCN(c3ccc(OCC(C)C)cc3)CC2)cc1` [Example 1.149], the IC50 is reported as 140 nM.
With `CCC(=O)N[C@@H](C)c1ccc(C2CCN(c3ccc(OC4CC4)cc3)CC2)cc1` [Example 1.151] the IC50 was 110 nM.
For `CCC(=O)N[C@@H](C)c1ccc(C2CCN(c3ccc(OCC4CC4(F)F)cc3)CC2)cc1` (stereo partly drawn) [Example 1.152], the IC50 was 80 nM.
`CCC(=O)N[C@@H](C)c1ccc(C2CCN(c3ccnc(Oc4ccccc4)c3)CC2)cc1` [Example 1.153] was tested, and the IC50 was 520 nM.
`CCOc1ccc(N2CCC(c3ccc([C@H](C)NC(=O)CC)cc3)CC2)c(C#N)c1` [Example 1.154] showed an IC50 of 300 nM.
Work on `CC(=O)N[C@@H](C)c1ccc(C2CCN(c3ccc(F)c(C)c3)CC2)cc1` [Example 1.155] yielded an IC50 of 410 nM.
`CC(=O)N[C@@H](C)c1ccc(C2CCN(c3ccc(Cl)c(C)c3)CC2)cc1` [Example 1.156] gave an IC50 of 600 nM.
For `COc1ccc(N2CCC(c3ccc([C@H](C)NC(C)=O)cc3)CC2)cc1F` [Example 1.157], the IC50 was 580 nM.
Molecule `CC(=O)N[C@@H](C)c1ccc(C2CCN(c3ccc(F)c(C#N)c3)CC2)cc1` [Example 1.159] has an IC50 of 2700 nM.
`COc1ccc(N2CCC(c3ccc([C@H](C)NC(C)=O)cc3)CC2)cc1C` [Example 1.160] gave an IC50 of 2100 nM.
Molecule `CC(=O)N[C@@H](C)c1ccc(C2CCN(c3ccc(Cl)c(F)c3)CC2)cc1` [Example 1.161] has an IC50 of 640 nM.
In the case of `COc1cc(N2CCC(c3ccc([C@H](C)NC(C)=O)cc3)CC2)ccc1Cl` [Example 1.162], the IC50 is reported as 3100 nM.
With `CC(=O)N[C@@H](C)c1ccc(C2CCN(c3ccc(F)c(F)c3)CC2)cc1` [Example 1.163] the IC50 was 670 nM.
Molecule `CC(=O)N[C@@H](C)c1ccc(C2CCN(c3ccc(OCC(F)F)cc3)CC2)cc1` [Example 1.164] has an IC50 of 770 nM.
For `CC(=O)N[C@@H](C)c1ccc(C2CCN(c3ccc(OCCC(F)(F)F)cc3)CC2)cc1` [Example 1.165], the IC50 was 100 nM.
`COc1ccc(N2CCC(c3ccc([C@H](C)NC(C)=O)cc3)CC2)cc1C1CC1` [Example 1.166] showed an IC50 of 4000 nM.
`CC(=O)N[C@@H](C)c1ccc(C2CCN(c3ccc(OCC4CCCO4)cc3)CC2)cc1` (stereo partly drawn) [Example 1.167] was tested, and the IC50 was 910 nM.
For `CCOc1ccc(N2CCC(c3ccc([C@H](C)NC(=O)CC)cc3)CC2)c(F)c1` [Example 1.168], the IC50 was 500 nM.
In the case of `CCC(=O)N[C@@H](C)c1ccc(C2CCN(c3ccnc(Oc4cncnc4)c3)CC2)cc1` [Example 1.169], the IC50 is reported as 1700 nM.
`CCOc1ccc(N2CCC(c3ccc([C@H](C)NC(=O)OC)cc3)CC2)c(F)c1` [Example 1.170] showed an IC50 of 400 nM.
For `CC(=O)N[C@@H](C)c1ccc(C2CCN(c3ccc(Cl)cc3C#N)CC2)cc1` [Example 1.171], the IC50 was 16300 nM.
For `CC(=O)N[C@@H](C)c1ccc(C2CCN(c3ccc(OC4CCCCC4)nc3)CC2)cc1` [Example 1.172], the IC50 was 250 nM.
Molecule `CC(=O)N[C@@H](C)c1ccc(C2CCN(c3cnc(C4CC4)cn3)CC2)cc1` [Example 1.173] has an IC50 of 820 nM.
`CC(=O)N[C@@H](C)c1ccc(C2CCN(c3ccc(C4CC4)nn3)CC2)cc1` [Example 1.174] gave an IC50 of 7500 nM.
Molecule `CC(=O)N[C@@H](C)c1ccc(C2CCN(c3ccc(C4CC4)nc3)CC2)cc1` [Example 1.175] has an IC50 of 1100 nM.
`CCCOc1ccc(N2CCC(c3ccc([C@H](C)NC(=O)N(C)C)cc3)CC2)nc1` [Example 1.178] gave an IC50 of 170 nM.
Molecule `CCOc1ccc(N2CCC(c3ccc([C@H](C)NC(=O)N(C)C)cc3)CC2)nc1` [Example 1.179] has an IC50 of 310 nM.
Molecule `CCOc1ccc(N2CCC(c3ccc([C@H](C)NC(C)=O)cc3)CC2)c(OCC)n1` [Example 1.180] has an IC50 of 530 nM.
`CCCOc1ccc(N2CCC(c3ccc([C@H](C)NC(C)=O)cc3)CC2)c(C#N)n1` [Example 1.181] gave an IC50 of 90 nM.
`CC(=O)N[C@@H](C)c1ccc(C2CCN(c3ccc(OCC4CC4)nc3C#N)CC2)cc1` [Example 1.183] was tested, and the IC50 was 150 nM.
With `CC(=O)N[C@@H](C)c1ccc(C2CCN(c3cc4c(cc3F)OCCCO4)CC2)cc1` [Example 1.184] the IC50 was 1200 nM.
For `C[C@H](NC(=O)C1CC1)c1ccc(C2CCN(c3cc4c(cc3F)OCCCO4)CC2)cc1` [Example 1.185], the IC50 was 22100 nM.
`CC(=O)N[C@@H](C)c1ccc(C2CCN(c3ccc(OCc4ccoc4)cc3)CC2)cc1` [Example 1.186] showed an IC50 of 170 nM.
`CC(=O)N[C@@H](C)c1ccc(C2CCN(c3cccc(C(F)(F)F)c3)CC2)cc1` [Example 1.188] was tested, and the IC50 was 80 nM.
With `CC(=O)N[C@@H](C)c1ccc(C2CCN(c3ccc(OC4CC4)cc3F)CC2)cc1` [Example 1.189] the IC50 was 60 nM.
`CCOc1cc(N2CCC(c3ccc([C@H](C)NC(C)=O)cc3)CC2)c(F)cn1` [Example 1.190] gave an IC50 of 1400 nM.
`CCOc1cc(N2CCC(c3ccc([C@H](C)NC(C)=O)cc3)CC2)ccn1` [Example 1.191] showed an IC50 of 390 nM.
In the case of `CC(=O)N[C@@H](C)c1ccc(C2CCN(c3ccc4c(c3F)OCCO4)CC2)cc1` [Example 1.192], the IC50 is reported as 120 nM.
Molecule `CCCOc1ccc(N2CCC(c3ccc(C(CC)NC(C)=O)cc3)CC2)cc1` (stereo not drawn) [Example 1.200] has an IC50 of 450 nM.
In the case of `CCC(NC(C)=O)c1ccc(C2CCN(c3ccc4c(c3)OCCO4)CC2)cc1` (stereo not drawn) [Example 1.201], the IC50 is reported as 4600 nM.
`CCC(NC(C)=O)c1ccc(C2CCN(c3ccc(OCC4CC4)cc3F)CC2)cc1` (stereo not drawn) [Example 1.202] was tested, and the IC50 was 1900 nM.
Molecule `CCC(NC(C)=O)c1ccc(C2CCN(c3ccc(OCC4CC4)cc3)CC2)cc1` (stereo not drawn) [Example 1.203] has an IC50 of 620 nM.
For `CCC(NC(C)=O)c1ccc(C2CCN(c3ccc(OC4CC4)cc3)CC2)cc1` (stereo not drawn) [Example 1.204], the IC50 was 450 nM.
For `CCC(NC(C)=O)c1ccc(C2CCN(c3ccc(OCC4CC4(F)F)cc3)CC2)cc1` (stereo not drawn) [Example 1.205], the IC50 was 660 nM.
Molecule `CCOc1ccc(N2CCC(c3ccc(C(CC)NC(C)=O)cc3)CC2)cc1` (stereo not drawn) [Example 1.206] has an IC50 of 4700 nM.
`CCOc1ccc(N2CCC(c3ccc(C(CC)NC(C)=O)cc3)CC2)c(F)c1` (stereo not drawn) [Example 1.207] was tested, and the IC50 was 5100 nM.
With `CCOc1ccc(N2CCC(c3ccc(CC(C)NC(C)=O)cc3)CC2)cc1` (stereo not drawn) [Example 2.1, N-(2-{4-[1-(4-Ethoxy-phenyl)-piperidin-4-yl]-phenyl}-1-methyl-ethyl)-acetamide] the IC50 was 2100 nM.
Work on `CCCOc1ccc(N2CCC(c3ccc(CC(C)NC(C)=O)cc3)CC2)cc1` (stereo not drawn) [Example 2.3] yielded an IC50 of 990 nM.
Molecule `CC(=O)NC(C)Cc1ccc(C2CCN(c3ccc4c(c3)OCCO4)CC2)cc1` (stereo not drawn) [Example 2.4] has an IC50 of 1800 nM.
With `CC(=O)NC(C)Cc1ccc(C2CCN(c3ccc(OCC(C)C)cc3)CC2)cc1` (stereo not drawn) [Example 2.7] the IC50 was 1600 nM.
